From ChEMBL document CHEMBL3244065, “Neuroleptics related to butaclamol. An investigation of the effects of chlorine substituents on the aromatic rings” (J Med Chem, 1978)

Experiments:
Rattus norvegicus [1] = experiment: Toxicity in ip dosed Sprague-Dawley rat assessed as induction of maximum catalepsy; type: organism-based; settings: in vivo
Rattus norvegicus [2] = experiment: Neuroleptic activity in ip dosed Sprague-Dawley rat assessed as inhibition of amphetamine-induced stereotyped behaviour administered 15 mins after d-amphetamine challenge; type: functional; settings: 0.25 h, read-out: MED
Rattus norvegicus [3] = experiment: Neuroleptic activity in ip dosed Sprague-Dawley rat assessed as conditioned active avoidance failure after 30 mins; type: functional; settings: 0.5 h
Rattus norvegicus [4] = experiment: Neuroleptic activity in ip dosed Sprague-Dawley rat assessed as dose required to decrease the continuous (Sidman) lever-pressing response to <50%; type: functional
Rattus norvegicus [5] = experiment: Neuroleptic activity in ip dosed Sprague-Dawley rat assessed as protection against epinephrine-induced mortality administered 1 hr prior to epinephrine injection; type: functional

SMILES | MED (Rattus norvegicus [1]) [mg/kg] | minimal effective dose (Rattus norvegicus [2]) [mg/kg] | ED50 (Rattus norvegicus [3]) [mg/kg] | Activity (Rattus norvegicus [4]) [mg/kg] | ED50 (Rattus norvegicus [5]) [mg/kg]
CC(C)[C@@]1(O)CCN2C[C@@H]3c4ccccc4CCc4c(Cl)ccc(c43)[C@H]2C1.Cl | 50 | 10 | 9 | 2.5 | 50
CC(C)[C@@]1(O)CCN2C[C@@H]3c4cccc(Cl)c4CCc4cccc(c43)[C@H]2C1.Cl | 100 | 20 | > 20 | 20 | 100
CC(C)[C@@]1(O)CCN2C[C@@H]3c4ccc(Cl)cc4CCc4cccc(c43)[C@H]2C1.Cl | 12.5 | 1.25 | 1.1 | 0.62 | 13.9
CC(C)[C@@]1(O)CCN2C[C@@H]3c4cc(Cl)ccc4CCc4c(Cl)ccc(c43)[C@H]2C1.Cl | – | > 20 | – | >5 | > 60
OCCN1CCN(C2Cc3cc(Cl)ccc3Sc3ccccc32)CC1 (stereo not drawn) | > 50 | 20 | 4.5 | 2.5 | 0.88
CN1CCN(C2=Nc3cc(Cl)ccc3Nc3ccccc32)CC1 [CLOZAPINE] | > 100 | 50 | 6.8 | 7.5 | 2.4
CC(C)[C@@]1(O)CCN2C[C@@H]3c4ccccc4CCc4cccc(c43)[C@H]2C1 [DEXCLAMOL] | 12.5 | 1.25 | 0.64 | 0.5 | 15
